Experiments:
FXR = tested on: FXR; design: method as in PMID 21649640; conditions: scoparone alone, up to 100 μM; cited from earlier work
UGT1A1 = experiment: mRNA expression of UGT1A1 in Hep3B (RT-PCR); format: cell-based, human; conditions: 10 μM, 2, 4, 6, 8 and 10 h
Description: (§1) Figure 6 The time course study of mRNA expression of MRP2 and UGT1A1 after 10 μM 6,7-diprenoxycoumarin treatment. Hep3B cells were treated with 10 μM 50 for 2, 4, 6, 8 and 10 h. The total mRNA was obtained and the expression of downstream genes were analyzed with PCR. The ratio of MRP2 to GAPDH was calculated using Image J and normalization.
(§2) Total RNA was isolated from control and treated cells using a TRIzol reagent (Invitrogen) according to the manufacturer’s instruction. The RNA concentration was measured by a spectrophotometer and equal amounts of total RNA (2 μg) were reverse—transcribed using a RevertAid First Strand cDNA Synthesis Kit (K1622, Fermentas, Hanover, MD, USA). Amplification of cDNA was performed in the PCR reaction buffer (0.2 mM dNTP, 1.5 mM MgCl2, and 0.5 μM of each primer) containing 2.5 units of Taq DNA polymerase. The PCR products were resolved by agarose electrophoresis, visualized by ethidium bromide straining and quantified by Image J®. The PCR cycling procedures and sequences of primers are listed below. PCR conditions: (1) UGT1A1: 94 °C, 30 s; 62 °C, 45 s; 72 °C, 30 s; 27 cycles; (2) MRP2: 94 °C, 30 s; 62 °C, 45 s; 72 °C, 30 s; 27 cycles; (3) CAR: 94 °C, 30 s; 59 °C, 45 s; 72 °C, 30 s; 35 cycles; (4) GADPH: 94 °C, 30 s; 62 °C, 45 s; 72 °C, 30 s; 27 cycles; (4) gtPBREM: 94 °C, 30 s; 63 °C, 30 s; 68 °C, 60 s; 30 cycles.

nuclear CAR = experiment: Protein expression of nuclear CAR (nuclear extraction, western blot); format: cell-based, human; conditions: Hep3B, treatment for 2 h
Description: (§3) Figure 3 Image of immunofluorescence staining for CAR translocation in Hep3B cells after 6,7-diprenoxycoumarin (50) treatment (A) and scoparone treatment (C). Hep3B cells were treated with 50 (10 μM) for 2 h. The negative control group was pre-treated with 10 nM okadaic acid (OA). The blue and green fluorescence stands for signals of nuclei and CAR protein, respectively. The protein expression of nuclear CAR after 6,7-diprenoxycoumarin (50) treatment for 2 h (B).
Cells were harvest by centrifugation after trypsin-EDTA treatment. The ice-cold CER I (10 μL/1 × 10^6 cells) was added to the cell pellet following the manufacturer’s instruction. The tube was vigorously vortexed on the highest setting for 15 s to fully suspend the cell pellet, incubated on ice for 10 min, then ice-cold CER II was added to the tube and vortexed for 5 s on the highest setting. After incubating in ice for 1 min, tube was vortexed for 5 s on the highest setting then subjected to centrifuge for 5 min at 16,000× g. The supernatant (cytoplasmic fraction) was […] to a clean pre-chilled tube and the nuclear fraction (pellet) was re-suspended in ice-cold NER. […]
(§4) Protein concentration of each sample was determined using a BCA Protein Assay Kit (Pirece®, Thermo Scientific). […] The emitted fluorescence from the membrane was caught on a LAS-4000 biomolecule imager (FUJI.).

MRP2 = experiment: mRNA expression of MRP2 in Hep3B (RT-PCR); format: cell-based, human; conditions: 10 μM, 2, 4, 6, 8 and 10 h
Description: as §1, §2

methyl-PP2Ac = experiment: PP2Ac methylation status in Hep3B (western blot); format: cell-based, human; conditions: Hep3B, 5, 10, 20 and 40 μM, 24 h
Description: Figure 5 The concentration-dependent study of PP2Ac methylation status under 6,7-diprenoxycoumarin (50) treatment. Hep3B cells (1 × 10^6) were treated with 50 (5, 10, 20 and 40 μM) for 24 h. Treated cell lysates were prepared as described in the Methods section and methyl-PP2Ac expression was analyzed by western blot.
1 × 10^6 cells were seeded in a 10 cm plate, incubated at 37 °C for overnight and treated with various concentrations of compounds for the indicated times. After incubation, the culture medium was removed and washed twice with 2 mL ice-cold 1× PBS. Three hundred μL of protein lysis buffer (150 mM NaCl, 50 mM Tris-HCl (pH 7.4), 1% SDS, 1% Triton X-100, 1 mM PMSF) was added into each plate, scraped with a rubber policeman, collected into a premarked microtube and the incubated in ice for 1 h, sonicated by Ultrasonic Cell Disruptor for three time at 5 s each. The cell lysated was cleared by centrifugation at 12,000× g for 15 min at 4 °C. Supernatants were transferred into a fresh marked microtube and stored at −20 °C for future use.
as §4, with “Scientific). Different percentages of SDS-PAGE gels were prepared according to the molecular size of proteins of interest.” for “Scientific).”

CAR protein = experiment: Immunofluorescence staining for CAR translocation in Hep3B cells; format: cell-based, human; conditions: 10 μM, 2 h
Description: as §3
Hep3B cells (4 × 10^5) were grown on coverslips for overnight then washed twice with 1× PBS and fixed with 4% paraformaldehyde in 1× PBS for 30 min at room temperature. Cells were then permeabilized with 1× PBS containing 0.1% (v/v) Triton X-100 for 10–15 min and blocked in 1× PBS containing 5% BSA for 1 h at room temperature. CAR antibody (1:200 dilutions) was added and reacted at room temperature for 2 h in 1× PBS containing 5% BSA. FITC-conjugated goat anti-rabbit IgG antibody was added for another 1 h at room temperature. Coverslips were mounted and images were acquired under a fluorescence microscope.

| SMILES | FXR activation (FXR) | mRNA expression level of UGT1A1 (UGT1A1) | protein expression of nuclear CAR (nuclear CAR) | mRNA expression level of MRP2 (MRP2) | methyl-PP2Ac (active form of PP2Ac) (methyl-PP2Ac) | translocation of CAR protein (CAR protein) |
| --- | --- | --- | --- | --- | --- | --- |
| COc1cc2ccc(=O)oc2cc1OC [Compound 39, scoparone] | no effect | – | – | – | – | – |
| CC(C)=CCOc1cc2ccc(=O)oc2cc1OCC=C(C)C [Compound 50, 6,7-diprenoxycoumarin] | – | enhanced | increased | enhanced | increased | confirmed |
